Here are results for 28 compounds from US20040157818A1, “Cxcr4-antagonistic drugs composed of nitrogen-containing compound” (priority 2001, published 2004).

This test addresses T1, CXCR4 (Homo sapiens, UniProt P61073).
T1 construct: endogenous in cells; host or cells: MT-4 cells
Nature of the test: CXCR4-binding inhibition activity (125I-SDF-1α binding to MT-4 cells). The conditions noted are these: 0.1 μM test material, ligand 125I-SDF-1α, 2 hours under ice cold condition. The procedure:
CXCR4-Binding Inhibition Activity
MT-4 cells (5×10^6/0.2 ml/well) were cultured on a 24-well microtiter plate. After the cells were incubated for 24 hours at 37° C. in a carbon dioxide gas incubator, a culture mediumwas replaced with a buffer solution (RPMI-1640 containing 0.1% BSA). Together with a ligand ^125I-SDF-1α (specific activity: 2,2000 Ci/mmol; DAIICHI PURE CHEMICALS CO. ,LTD. (Tokyo)), various concentrations of test materials were subjected to a binding reaction for 2 hours under ice cold condition.

T1 sequence (P61073 whole entry): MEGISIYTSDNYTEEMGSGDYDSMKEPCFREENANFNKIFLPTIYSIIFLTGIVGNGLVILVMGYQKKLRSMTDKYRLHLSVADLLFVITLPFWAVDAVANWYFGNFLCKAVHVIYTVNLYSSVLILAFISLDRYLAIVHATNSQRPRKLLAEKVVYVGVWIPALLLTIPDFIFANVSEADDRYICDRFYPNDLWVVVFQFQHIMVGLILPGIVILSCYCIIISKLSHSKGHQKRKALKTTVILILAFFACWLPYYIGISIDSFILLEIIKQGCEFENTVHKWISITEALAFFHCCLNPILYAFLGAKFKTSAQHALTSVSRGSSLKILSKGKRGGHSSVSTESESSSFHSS

For `C[C@@H](NC(=O)[C@H](CCCNC1CCCc2cccnc21)NC(=O)c1ccc(CNCc2ncc[nH]2)c2ccccc12)c1cccc2ccccc12` (stereo partly shown) [Compound No. 59], the “inhibition rate (binding-inhibition % at 0.1 μM)” value is on record as 86.0%.
Same read-out and setting: the result for `N=C(N)NCCC[C@H](NC(=O)c1ccc(CNCc2ncc[nH]2)c2ccccc12)C(=O)NCc1cccc2ccccc12` [Compound No. 45, N^α-(4-((N-imidazol-2-ylmethyl)aminomethyl)naphthoyl)-L-arginine 1-naphthalenemethylamide] reads 95.8%; that for `C[C@H](NC(=O)[C@H](CCCNC(=N)N)NC(=O)c1ccc(CNCc2ncc[nH]2)cc1)c1cccc2ccccc12` [Compound No. 95], 100.0%.
Still for that read-out and setting: the result for `O=C(N[C@@H](CCCNCc1ncc[nH]1)C(=O)NCc1cccc2ccccc12)c1ccc(CNCc2ncc[nH]2)cc1` [Compound No. 21, (S)-2-(4-((imidazol-2-ylmethyl)aminomethyl)benzoylamino)-5-((imidazol-2-ylmethyl)amino)valerate 1-naphthalenemethylamide] reads 12.8%.
Consider `NC(N)=NCCC[C@H](NC(=O)c1ccc(CNCc2ccccn2)cc1)C(=O)NCc1cccc2ccccc12` [Compound No. 43, N^α-(4-(N-2-picolylaminomethyl)benzoyl)-L-arginine 1-naphthalenemethylamide], for which the “inhibition rate (binding-inhibition % at 0.1 μM)” value was determined as 43.6%.
With `C[C@H](NC(=O)[C@H](CCCNC1=NCCCN1)NC(=O)c1ccc(CNCc2ncc[nH]2)cc1)c1cccc2ccccc12` [Compound No. 112, (S)-2-(4-((N-imidazol-2-ylmethyl)aminomethyl)benzoyl)amino-5-(3,4,5,6-tetrahydropyrimidin-2-yl)amino valerate(1′S)-1′-(1-naphthyl)ethylamide], the “inhibition rate (binding-inhibition % at 0.1 μM)” value is 84.2%.
The same measure, in the same setting: the result for `O=C(N[C@@H](CCNCc1ccccn1)C(=O)NCc1cccc2ccccc12)c1ccc(CNCc2ccccn2)cc1` [Compound No. 61, (S)-2-(4-(N-2-picolylamino)methylbenzoylamino)-4-(N-2-picolylamino)lactate 1-naphthalenemethylamide] reads 32.9%; that for `N=C(N)NCCC[C@H](NC(=O)c1ccc(CNCc2ncc[nH]2)cc1)C(=O)NCc1cccc2ccccc12` [Compound No. 53, N^α-(4-((imidazol-2-ylmethyl)aminomethyl)benzoyl)-L-arginine 1-naphthalenemethylamide], 71.5%.
The same measure, in the same setting: next, `C[C@H](NC(=O)[C@H](CCCNC1=NCCN1)NC(=O)c1ccc(CNCc2ncc[nH]2)cc1)c1cccc2ccccc12` [Compound No. 110, (S)-2-(4-((N-imidazol-2-ylmethyl)aminomethyl)benzoyl)amino-5-(4,5-dihydroimidazol-2-yl)amino valerate(1′S)-1′-(1-naphthyl)ethylamide]: 75.7%.
Same read-out and setting: next, `C[C@H](NC(=O)[C@H](CCCNCc1ccccn1)NC(=O)c1ccc(CNCc2ncc[nH]2)c2ccccc12)c1cccc2ccccc12` [Compound No. 56]: 69.9%; `O=C(N[C@@H](CCCNCc1ccccn1)C(=O)NCc1cccc2ccccc12)c1ccc(CNCc2ccccn2)c2ccccc12` [Compound No. 27, (S)-2-(4-(N-2-picolylaminomethyl)naphthoylamino)-5-(2-picolylamino)valerate 1-naphthalenemethylamide]: 82.1%; `N=C(N)NCCC[C@H](NC(=O)c1ccc(CNCc2ccccn2)c2ccccc12)C(=O)NCc1cccc2ccccc12` [Compound No. 44, N^α-(4-(N-2-picolylaminomethyl)naphthoyl)-L-arginine 1-naphthalenemethylamide]: 88.1%.
Consider `Cn1ccnc1CNCCC[C@H](NC(=O)c1ccc(CNCc2nccn2C)c2ccccc12)C(=O)NCc1cccc2ccccc12` [Compound No. 29, (S)-2-(4-((1-methylimidazol-2-ylmethyl)aminomethyl)naphthoylamino)-5-((1-methylimidazol-2-ylmethyl)amino)valerate 1-naphthalenemethylamide], for which the “inhibition rate (binding-inhibition % at 0.1 μM)” value is 56.8%.
`O=C(N[C@@H](CCCNC1CCCc2cccnc21)C(=O)NCc1cccc2ccccc12)c1ccc(CNC2CCCc3cccnc32)c2ccccc12` (stereo partly drawn) [Compound No. 26, (2S)-2-(4-(5,6,7,8-tetrahydroquinolin-8-ylaminomethyl)naphthoyl)amino-5-(5,6,7,8-tetrahydroquinolin-8-ylamino)valerate 1-naphthalenemethylamide]: the “inhibition rate (binding-inhibition % at 0.1 μM)” value is 78.6%.
As to `O=C(N[C@@H](CCCNC1CCCc2cccnc21)C(=O)NCc1cccc2ccccc12)c1ccc(CNc2ccccn2)c2ccccc12` (stereo partly drawn) [Compound No. 104, (2S)-2-(4-(2-pyridyl)aminomethylnaphthalene-1-carbonyl)anmino-5-(5,6,7,8-tetrahydroquinolin-8-yl)amino valerate 1-naphthylmethylamide], the “inhibition rate (binding-inhibition % at 0.1 μM)” value is listed as 40.6%.
For orientation: inhibition means the relative decrease from the control value, in per cent. With `c1cc(CN2CCCNCCNCCCNCC2)ccc1CN1CCCNCCNCCCNCC1` [AMD3100, reference compound], the inhibition at 0.1 µM (read-out: inhibition rate (binding-inhibition % at 0.1 μM)) came out at 10%.
Consider `O=C(N[C@@H](CCCNCc1ccccn1)C(=O)NCc1cccc2ccccc12)c1ccc(CNCc2ccccn2)cc1` [Compound No. 60, (S)-2-(4-(N-2-picolylaminomethyl)benzoylamino)-5-(N-2-picolylamino)valerate 1-naphthalenemethylamide], for which the “inhibition rate (binding-inhibition % at 0.1 μM)” value amounted to 16.8%.
`C[C@H](NC(=O)[C@H](CCCNC1CCCc2cccnc21)NC(=O)c1ccc(CNCc2ccccn2)nc1)c1cccc2ccccc12` (stereo partly drawn) [Compound No. 83, (2S)-2-(2-(N-2-picolylaminomethyl)pyridin-5-ylcarbonyl)amino-5-(5,6,7,8-tetrahydroquinolin-8-yl)amino valerate(1′S)-1′-(1-naphthyl)ethylamide]: the “inhibition rate (binding-inhibition % at 0.1 μM)” value amounted to 78.0%.
As to `C[C@H](NC(=O)[C@H](CCCNCc1nccn1C)NC(=O)c1ccc(CNCc2nccn2C)c2ccccc12)c1cccc2ccccc12` [Compound No. 87], the “inhibition rate (binding-inhibition % at 0.1 μM)” value amounted to 57.9%.
For `O=C(N[C@@H](CCCNC1CCCc2cccnc21)C(=O)NCCc1c[nH]c2ccccc12)c1ccc(CNCc2ncc[nH]2)c2ccccc12` (stereo partly drawn) [Compound No. 19, (2S)-2-(4-((N-imidazol-2-ylmethyl)aminomethyl)naphthoylamino)-5-(5,6,7,8-tetrahydroquinolin-8-ylamino)2-(3-indolyl)ethylamide valerate], the “inhibition rate (binding-inhibition % at 0.1 μM)” value is listed as 73.8%.
On to `O=C(N[C@@H](CCCNCc1ncc[nH]1)C(=O)NCc1cccc2ccccc12)c1ccc(CNCc2ncc[nH]2)c2ccccc12` [Compound No. 28, (S)-2-(4-((imidazol-2-ylmethyl)aminomethyl)naphthoylamino)-5-((imidazol-2-ylmethyl)amino)valerate 1-naphthalenemethylamide], for which the “inhibition rate (binding-inhibition % at 0.1 μM)” value came out at 78.1%.
Same read-out and setting: the result for `O=C(N[C@@H](CCCNC1CCCc2cccnc21)C(=O)NCc1cccc2ccccc12)c1ccc(CNC2CCCc3cccnc32)cc1` (stereo partly drawn) [Compound No. 64, (2S)-2-(4-((5,6,7,8-tetrahydroquinolin-8-yl)aminomethyl)benzoylamino)-5-((5,6,7,8-tetrahydroquinolin-8-yl)amino)valerate 1-naphthalenemethylamide] reads 51.6%; that for `C[C@H](NC(=O)[C@H](CCCNC1CCCc2cccnc21)NC(=O)c1ccc(CNCc2ccccn2)cc1)c1cccc2ccccc12` (stereo partly drawn) [Compound No. 91, (2S)-2-(4-(N-2-picolylaminomethyl)benzoyl)amino-5-(5,6,7,8-tetrahydroquinolin-8-yl)amino valerate(1′S)-1′-(1-naphthyl)ethylamide], 94.0%; that for `O=C(N[C@@H](CCCNC1CCCc2cccnc21)C(=O)NCc1cccc2ccccc12)c1ccc(CNCc2ccccn2)c2ccccc12` (stereo partly drawn) [Compound No. 38, (2S)-2-(4-(N-2-picolylaminomethyl)naphthoylamino)-5-(5,6,7,8-tetrahydroquinolin-8-ylamino)valerate 1-naphthalenemethylamide], 90.0%.
Take `C[C@H](NC(=O)[C@H](CCCNC1CCCc2cccnc21)NC(=O)c1ccc(CNCc2ccccn2)c2ccccc12)c1cccc2ccccc12` (stereo partly drawn) [Compound No. 85, (2S)-2-(4-(N-2-picolylaminomethyl)naphthoyl)amino-5-(5,6,7,8-tetrahydroquinolin-8-yl)amino valerate(1′S)-1′-(1-naphthyl)-ethylamide]: the “inhibition rate (binding-inhibition % at 0.1 μM)” value came out at 90.7%.
For `Cn1cccc1CNCCC[C@H](NC(=O)c1ccc(CNCc2nccn2C)cc1)C(=O)NCc1cccc2ccccc12` [Compound No. 30, (S)-2-(4-((1-methylimidazol-2-ylmethyl)aminomethyl)benzoylamino)-5-((1-methylpyrrol-2-ylmethyl)amino)valerate 1-naphthalenemethylamide], the “inhibition rate (binding-inhibition % at 0.1 μM)” value was 60.9%.
Take `C[C@@H](NC(=O)[C@H](CCCNCc1ccccn1)NC(=O)c1ccc(CNCc2ncc[nH]2)c2ccccc12)c1cccc2ccccc12` [Compound No. 58]: the “inhibition rate (binding-inhibition % at 0.1 μM)” value came out at 52.0%.
As to `Cn1cccc1CNCCC[C@H](NC(=O)c1ccc(CNCc2ccccn2)cc1)C(=O)NCc1cccc2ccccc12` [Compound No. 5, (S)-2-(4-(N-2-picolylaminomethyl)benzoylamino)-5-((1-methylpyrrol-2-ylmethyl)amino)valerate 1-naphthalenemethylamide], the “inhibition rate (binding-inhibition % at 0.1 μM)” value worked out at 26.4%.
